According to PubChem BioAssay (NCI):
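A five-concentration, 48-hour dose response in 96-well plates underlies each endpoint, interpolated linearly between surrounding concentrations. Abbreviation: GI50, concentration required for 50% inhibition of growth. At the TGI there is no net growth.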

Key:
Experiment in all cases: NCI anticancer screen, dose series, 48 h
MALME-3M melanoma = system: MALME-3M melanoma
OVCAR-5 ovarian = system: OVCAR-5 ovarian
HT29 colon = system: HT29 colon
HCT-15 colon = system: HCT-15 colon
NCI-H460 lung = system: NCI-H460 lung
SK-OV-3 ovarian = system: SK-OV-3 ovarian
HOP-62 NSCLC = system: HOP-62 NSCLC
A498 renal = system: A498 renal
TK-10 renal = system: TK-10 renal

Row | Compound | TGI (MALME-3M melanoma) [µM] | TGI (OVCAR-5 ovarian) [µM] | TGI (HT29 colon) [µM] | TGI (HCT-15 colon) [µM] | TGI (NCI-H460 lung) [µM] | TGI (SK-OV-3 ovarian) [µM] | TGI (HOP-62 NSCLC) [µM] | TGI (A498 renal) [µM] | TGI (TK-10 renal) [µM] | GI50 (MALME-3M melanoma) [µM] | GI50 (OVCAR-5 ovarian) [µM] | GI50 (NCI-H460 lung) [µM] | GI50 (A498 renal) [µM] | GI50 (TK-10 renal) [µM]
1 | O=C1OC(c2ccccc2)(c2ccccc2)c2ccc3ccc(F)cc3c21 | > 100 | > 100 | > 100 | > 100 | > 100 | > 100 | > 100 | > 100 | > 100 |  |  |  |  | 
2 | CSC(=Nc1ccccc1Cl)NC(=O)c1ccc(Br)cc1 | > 100 | > 100 | > 100 | > 100 | > 100 | > 100 | 55.3 |  | > 100 |  |  |  |  | 
3 | O=C(N/C(=C\c1c(O)ccc2ccccc12)c1nc2ccccc2[nH]1)c1ccccc1 | > 100 | > 100 | > 100 | > 100 | > 100 | > 100 | 76.1 | > 100 | > 100 |  |  |  |  | 
4 | CCO/C(CCn1[nH]c(=O)c(Cl)c(Cl)c1=O)=N\NC(=O)C(=O)NN | > 100 | > 100 | > 100 | > 100 | > 100 | > 100 | > 100 | > 100 | > 100 |  |  |  |  | 
5 | CC1(C)OC2CC3COC(=O)C3CC2O1 (centres undefined) | > 100 | > 100 | > 100 | > 100 | > 100 | > 100 | > 100 | > 100 | > 100 |  |  |  |  | 
6 | C#CCN(N=O)C(=O)NCCCCC(NC(=O)OCc1ccccc1)C(=O)OCc1ccccc1 (centres undefined) | 71.6 | > 100 | > 100 | > 100 | > 100 | > 100 | > 100 | > 100 | > 100 |  |  |  |  | 
7 | O=C(Nc1cc(Cl)ccc1Cl)c1cc2cccc(Br)c2oc1=O | > 100 |  | > 100 | > 100 | > 100 | > 100 | > 100 |  | > 100 |  |  |  |  | 
8 | Cc1cc(Br)cc(C)c1NC(=O)C(=O)C(C(=O)c1ccncc1)C1OC(=O)c2ccccc21 (centres undefined) | > 100 | > 100 |  | > 100 | > 100 | > 100 | > 100 | > 100 | > 100 |  |  |  |  | 
9 | NC(=O)COc1c(Br)cc(Br)cc1Br | > 100 | > 100 | > 100 | > 100 | > 100 | > 100 | > 100 |  |  |  |  |  |  | 
10 | CCOP(=O)(OCC)/C(C#N)=C\c1ccsc1 | > 100 | > 100 | > 100 | > 100 | > 100 | > 100 | > 100 |  | > 100 |  |  |  |  | 
11 | O=C1NC(=O)C(=Cc2c3ccccc3cc3ccccc23)C(=O)N1 |  |  | > 100 | > 100 | > 100 | > 100 | > 100 | > 100 | > 100 |  |  |  |  | 
12 | COc1cc2c(c(O)c1C)C(=O)CC(c1ccccc1)O2 (centres undefined) | > 100 | > 100 | > 10 | > 100 | > 10 | > 100 | > 100 | > 100 | 77.3 |  |  |  |  | 
13 | COC1=CC(=O)C(Br)=CC1=O | 35.6 |  | 35.6 | 47 | > 100 | > 100 | > 100 |  | 35.8 |  |  |  |  | 
14 | Cc1cc2c(c3nocc13)C(=O)c1ccccc1C2=O | > 100 | > 100 | > 100 | > 100 | > 100 | > 100 | > 100 |  | > 100 |  |  |  |  | 
15 | CN(C)CCNC(=O)c1cccc2nc3ccc4cccnc4c3nc12 |  | 2.67 | 4.88 | 2.33 | 1.01 | 8.53 | 1.86 | 0.845 | 0.688 |  |  |  |  | 
16 | Cc1c(NC(=O)CCl)c(=O)oc2c(C)c3occc(=O)c3cc12 | 44.4 | 32.4 | 35.3 |  | 27.5 | 32.8 | 29.8 | 31.7 | 42.6 |  |  |  |  | 
17 | CCN(CC)CCCOc1ccc2ncnc(Nc3ccc(Oc4cccc(C(F)(F)F)c4)c(Cl)c3)c2c1 | 3.04 | 2.99 |  |  | 3.33 |  |  | 3.56 | 2.56 | 1.57 | 1.56 | 1.78 | 0.229 | 1.14
18 | CCN(CCCl)CCCCCNc1c2ccccc2nc2ccc(OC)cc12 | 5.93 | 5.39 | 2.94 | 10.9 | 1.51 | 3.62 | 8.38 | 3.52 | 44.3 |  |  |  |  | 
